Patent US20250236589A1, “THERAPEUTIC PHENETHYLAMINE COMPOSITIONS AND METHODS OF USE” (Cybin IRL Limited, priority 2022, published 2025)
Like-named read-outs stand apart in the source and are kept apart here. Marks after values point to notes of the source that are not given here.

Tests used:
5-HT2A receptor [1] = target: T1, 5-HT2A receptor (Homo sapiens (Human), UniProt P28223); assay: 5-HT2A radioligand competition binding ([3H]LSD or [3H]ketanserin)
[2] = In vitro liver microsome stability (RLM); type: in vitro ADME; details: rat, rat liver microsomes, 0.5 mg/mL microsomes, NADPH, read-out: RLM, t1/2
Experimental: In vitro stability was determined in Human (HLM), Rat (RLM), Mouse (MsLM), and dog (DLM) Liver Microsomes. All liver microsomes were purchased from a commercial supplier (e.g. XenoTech). The reaction mixture, minus NADPH, was prepared as described below. The test compound was added into the reaction mixture at a final concentration of 1 μM or co-dosed with their deuterated analog(s) at 1 μM each. The control compound, testosterone, was run simultaneously with the test compound in a separate reaction. The reaction mixture (without cofactor) was equilibrated in a shaking water bath at 37° C. for 5 minutes. The reaction was initiated by the addition of the cofactor, and the mixture was incubated in a shaking water bath at 37° C. Aliquots (150 μL) were withdrawn at 0, 5, 10, 20, 30, 60, and 120 minutes. Test compound and testosterone samples were immediately combined with 150 μL of ice-cold acetonitrile (ACN) containing 0.1% formic acid and internal standard to terminate the reaction. The samples were then mixed and centrifuged to precipitate proteins. All samples were assayed by LC-MS/MS using electrospray ionization. The peak area response ratio (PARR) of analyte to internal standard at each time point was compared to the PARR at time 0 to determine the percent remaining at each time point. Half-lives were calculated using GraphPad software, fitting to a single-phase exponential decay equation.

human 5-HT2B receptor = human 5-HT2B receptor (Homo sapiens (Human), UniProt P41595); assay: 5-HT2B functional assay, IP1 (IPOne); type: cell-based; details: for Emax: IP1 assay, relative to 5-HT
Experimental: 5-HT2A,2B,2C receptor-mediated Gq activation—canonical signaling pathways—[phosphoinositide hydrolysis leading to the production of inositol phosphate 1 (IP1, IPOne, Cisbio assay) or direct G-protein activation using TRUPATH technology]were measured as previously described (Porter, R. H. P., Benwell, K. R., Lamb, H., Malcolm, C. S., Allen, N. F., Revell, D. F., Adams, D. R. and Sheardown, M. J., 1999, Functional characterization of agonists at recombinant human 5-HT2a, 5HT2b and 5-HT2c receptors in CHO-K1 cells, Brit J Pharmacol 128, 13; Olsen, R. H. J., DiBerto, J. F., English, J. G. et al. TRUPATH, an open-source biosensor platform for interrogating the GPCR transducerome. […] Briefly, for the IPOne assay, for 5-HT2ARs, CHO-K1 or HEK-293 cells were incubated with test articles and 5-HT (positive control) in stimulation buffer containing LiCl. After incubation, cells were lysed and fluorescence acceptor and donor were added. FRET was measured after 60 min at room temperature using a microplate reader (Envision, Perkin Elmer). TRUPATH assays followed a similar workflow, except that different reagents were used, and LiCl was not included in the samples; the protocol was based on the report by Olsen, R. H. J. et al., cited above.

mice = assay: Head-twitch response (HTR) screening in mice; type: in vivo, mouse
Experimental: Protocols were followed according to Canal C E, Morgan D. Head-twitch response in rodents induced by the hallucinogen 2,5-dimethoxy-4-iodoamphetamine: a comprehensive history, a re-evaluation of mechanisms, and its utility as a model. […] Mice were housed in standard laboratory cages with ad libitum access to food and water and were acclimated to the vivarium for at least one week prior to testing in a procedure room. In a typical experiment, mice were injected 3 mg/kg of test article subcutaneously. Mice were placed immediately thereafter in a clear, polycarbonate box (46×20×20 cm), and HTRs were counted at various time points after administration using hand-held tally counters. In a separate experiment, plasma and brain samples were collected at 15 and 160 minutes after administration of test compounds to measure plasma and brain concentrations. Quantification was performed using LC-MS/MS method (LLOQ, 9 nM).

5-HT2A receptor [3] = target: T1, 5-HT2A receptor; assay: 5-HT2A functional assay, IP1 (IPOne); type: cell-based; details: IP1 assay; for EC50: read-out: 5-HT2A EC50; for Emax: relative to 5-HT
Experimental: After incubation, cells were lysed and fluorescence acceptor and donor were added. FRET was measured after 60 min at room temperature using a microplate reader (Envision, Perkin Elmer). TRUPATH assays followed a similar workflow, except that different reagents were used, and LiCl was not included in the samples; the protocol was based on the report by Olsen, R. H. J. et al., cited above.

[4] = Plasma and brain concentrations after dosing in mice (screening); type: in vivo, mouse; details: mouse; for concentration at 15 min / concentration at 160 min: sc, mice, 3 mg/kg s.c.; for Kp at 160 min: brain/plasma, subcutaneous, 3 mg/kg, 160 min after 3 mg/kg, read-out: brain/plasma ratio, 160 min
MAO-A = MAO-A (Homo sapiens (Human), UniProt P21397); assay: Recombinant human MAO-A activity (stability); type: in vitro ADME; details: hrMAO 0.02 mg/mL, read-out: MAO-A, t1/2
Experimental: hrMAO-A and MAO control were purchased from XenoTech. The reaction mixture was prepared as described below. The test compound was added into the reaction mixture at a final concentration of 1 μM or co-dosed with their deuterated analog at 1 μM each. The positive control kynuramine (25 μM) was run simultaneously with the test compound in a separate reaction. The reaction mixture (without test compounds or kynuramine) was equilibrated in a shaking water bath at 37° C. for 5 minutes. The reaction was initiated by the addition of the test compound or kynuramine, and the mixture was incubated in a shaking water bath at 37° C. Aliquots (150 μL) of the test compound reaction mixture were withdrawn at 0, 5, 10, 20, 30, 60, and 120 minutes. Aliquots (150 μL) of the positive control reaction mixture were withdrawn at 0 and 30 minutes. Test compound(s) and kynuramine samples were immediately combined with 150 μL of ice-cold 100% acetonitrile containing 0.1% formic acid and internal standard (0.2 μM metoprolol) to terminate the reaction. The samples were then mixed and centrifuged to precipitate proteins. All samples were assayed by LC-MS/MS. The peak area response ratio (PARR) of analyte to internal standard at each time point was compared to the PARR at time 0 to determine the percent remaining at each time point. Half-lives were calculated using GraphPad software, fitting to a single-phase exponential decay equation.

[5] = read-out: 5-HT2A, Ki, radioligand [3H]ketanserin
[6] = brain, read-out: Brain, 160 min
[7] = plasma, read-out: Plasma, 15 min
[8] = plasma, read-out: Plasma, 160 min
[9] = read-out: 5-HT2A, Ki, radioligand [3H]LSD

Sequence of human 5-HT2B receptor (P41595 whole entry, looked up): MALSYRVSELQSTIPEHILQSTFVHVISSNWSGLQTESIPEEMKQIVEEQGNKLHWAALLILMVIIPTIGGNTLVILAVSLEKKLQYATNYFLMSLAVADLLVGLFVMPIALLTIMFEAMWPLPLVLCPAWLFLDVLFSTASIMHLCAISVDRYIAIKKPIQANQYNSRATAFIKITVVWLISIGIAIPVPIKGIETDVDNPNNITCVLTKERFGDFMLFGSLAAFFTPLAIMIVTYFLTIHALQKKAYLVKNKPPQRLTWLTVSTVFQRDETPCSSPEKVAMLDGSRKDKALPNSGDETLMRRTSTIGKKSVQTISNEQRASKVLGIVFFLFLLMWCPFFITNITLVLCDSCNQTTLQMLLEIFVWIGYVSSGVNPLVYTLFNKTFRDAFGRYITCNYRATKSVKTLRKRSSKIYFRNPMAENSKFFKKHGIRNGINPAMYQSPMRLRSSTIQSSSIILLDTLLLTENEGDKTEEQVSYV
Sequence of MAO-A (P21397 whole entry, looked up): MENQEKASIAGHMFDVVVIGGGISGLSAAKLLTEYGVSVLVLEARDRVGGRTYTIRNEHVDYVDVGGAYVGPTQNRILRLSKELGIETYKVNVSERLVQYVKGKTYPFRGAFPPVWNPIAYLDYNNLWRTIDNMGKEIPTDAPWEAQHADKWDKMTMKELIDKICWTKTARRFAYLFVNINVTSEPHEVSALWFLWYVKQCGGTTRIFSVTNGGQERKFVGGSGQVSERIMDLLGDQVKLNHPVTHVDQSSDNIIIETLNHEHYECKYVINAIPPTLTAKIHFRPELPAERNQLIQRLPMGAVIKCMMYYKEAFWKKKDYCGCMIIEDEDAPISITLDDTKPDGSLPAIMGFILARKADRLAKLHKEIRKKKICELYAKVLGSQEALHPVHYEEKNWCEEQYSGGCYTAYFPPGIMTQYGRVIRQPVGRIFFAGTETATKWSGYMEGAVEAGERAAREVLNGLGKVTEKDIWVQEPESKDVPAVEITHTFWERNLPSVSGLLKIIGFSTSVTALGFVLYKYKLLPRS

SMILES: [2H]C([2H])([2H])C(c1cc(OC)c(CCN)cc1OC)(C([2H])([2H])[2H])C([2H])([2H])[2H] [III-2, 2-(2,5-dimethoxy-4-(2-(methyl-d3)propan-2-yl-1,1,1,3,3,3-d6)phenyl)ethan-1-amine]
- Ki (5-HT2A receptor [1]): 10 nM
- half-life at 1 μM [2]: 2.5 min

SMILES: [2H]C([2H])(N)Cc1cc(OC)c(SC)cc1OC [IV-1, 2-(2,5-dimethoxy-4-(methylthio)phenyl)ethan-1,1-d2-1-amine]
- Ki (5-HT2A receptor [1]): > 150 nM
- Ki (5-HT2A receptor [1]; [5]): 357 nM
- half-life at 1 μM [2]: 5.3 min

SMILES: COc1cc(OCCC(F)F)c(OC)cc1CCN [Compound I-6, 2-(4-(3,3-difluoropropoxy)-2,5-dimethoxyphenyl)ethan-1-amine]
- Ki (5-HT2A receptor [1]): > 150 nM
- half-life at 1 μM [2]: > 120 min

SMILES: COc1cc(SCC(F)(F)C(F)F)c(OC)cc1CCN [Compound I-10, 2-(2,5-dimethoxy-4-((2,2,3,3-tetrafluoropropyl)thio)phenyl)ethan-1-amine]
- EC50 (human 5-HT2B receptor): 240 nM
- Emax (human 5-HT2B receptor): 84%
- affinity at 5-HT2A receptors (in words) (5-HT2A receptor [1]): high affinity
- HTR 15-25 min (mice; mice, 3 mg/kg s.c.): 3.4
- HTR 160-170 min (mice; mice, 3 mg/kg s.c.): 2.7
- 2A/2B EC50 Selectivity (5-HT2A receptor [3]): 2.7
- EC50 (5-HT2A receptor [3]): 89 nM
- Emax (5-HT2A receptor [3]): 76%
- concentration at 15 min ([4]; brain, read-out: Brain 15 min): 900 nM
- concentration at 160 min [4, 6]: 1100 nM
- Kp at 160 min [4]: 12.3
- concentration at 15 min [4, 7]: 900 nM
- concentration at 160 min [4, 8]: 100 nM

SMILES: [2H]C([2H])([2H])Oc1cc(C2CCCC2)c(OC([2H])([2H])[2H])cc1CCN [II-4, 2-(4-cyclopentyl-2,5-bis(methoxy-d3)phenyl)ethan-1-amine]
- Ki (5-HT2A receptor [1]): > 150 nM
- Ki (5-HT2A receptor [1]; [9]): 202 nM
- half-life at 1 μM (MAO-A): > 120 min
- half-life at 1 μM [2]: 7.5 min

SMILES: COc1cc(OCCC(F)(F)F)c(OC)cc1CCN [Compound I-5, 2-(2,5-dimethoxy-4-(3,3,3-trifluoropropoxy)phenyl)ethan-1-amine]
- Ki (5-HT2A receptor [1]): > 150 nM
- half-life at 1 μM [2]: > 120 min

SMILES: [2H]C([2H])([2H])Oc1cc(C(F)(F)F)c(OC([2H])([2H])[2H])cc1CCN [II-23, 2-(2,5-bis(methoxy-d3)-4-(trifluoromethyl)phenyl)ethan-1-amine]
- Ki (5-HT2A receptor [1]; [5]): 55 nM
- half-life at 1 μM (MAO-A): > 120 min
- half-life at 1 μM [2]: 21.4 min

SMILES: COc1cc(C2CCCC2)c(OC)cc1CCN [Compound I-13, 2-(4-cyclopentyl-2,5-dimethoxyphenyl)ethan-1-amine]
- affinity at 5-HT2A receptors (in words) (5-HT2A receptor [1]): appreciable affinity
- Ki (5-HT2A receptor [1]; [9]): 150 nM
- HTR (in words) (mice; 3 mg/kg): did not elicit an HTR
- HTR 15-25 min (mice; mice, 3 mg/kg s.c.): 2.7
- half-life at 1 μM (MAO-A): > 120 min
- half-life at 1 μM [2]: 7.8 min

SMILES: COc1cc(OCCCF)c(OC)cc1CCN [Compound I-7, 2-(4-(3-fluoropropoxy)-2,5-dimethoxyphenyl)ethan-1-amine]
- Ki (5-HT2A receptor [1]): > 150 nM
- Ki (5-HT2A receptor [1]; [9]): 2600 nM
- half-life at 1 μM (MAO-A): > 120 min
- half-life at 1 μM [2]: > 120 min

SMILES: [2H]C([2H])([2H])Oc1cc(C(C)(C)C)c(OC([2H])([2H])[2H])cc1CCN [II-3, 2-(4-(tert-butyl)-2,5-bis(methoxy-d3)phenyl)ethan-1-amine]
- Ki (5-HT2A receptor [1]; [9]): 11 nM
- half-life at 1 μM [2]: 2.4 min

SMILES: COc1cc(C(C)(C)C)c(OC)cc1CCN [VI-1, 2-(4-(tert-butyl)-2,5-dimethoxyphenyl)ethan-1-amine]
- EC50 (human 5-HT2B receptor): 25 nM
- Emax (human 5-HT2B receptor): 87%
- Ki (5-HT2A receptor [1]; [9]): 9.9 nM
- HTR 15-25 min (mice; mice, 3 mg/kg s.c.): 24.5
- HTR 160-170 min (mice; mice, 3 mg/kg s.c.): 17.7
- 2A/2B EC50 Selectivity (5-HT2A receptor [3]): 6
- EC50 (5-HT2A receptor [3]): 4.2 nM
- Emax (5-HT2A receptor [3]): 87%
- concentration at 15 min ([4]; brain, read-out: Brain 15 min): 2900 nM
- concentration at 160 min [4, 6]: 4600 nM
- Kp at 160 min [4]: 57.1
- concentration at 15 min [4, 7]: 250 nM
- concentration at 160 min [4, 8]: 80 nM
- half-life at 1 μM [2]: 2.4 min

SMILES: COc1cc(SCCC(F)(F)F)c(OC)cc1CCN [Compound I-2, 2-(2,5-dimethoxy-4-((3,3,3-trifluoropropyl)thio)phenyl)ethan-1-amine]
- affinity at 5-HT2A receptors (in words) (5-HT2A receptor [1]): high affinity
- Ki (5-HT2A receptor [1]; [9]): 8.5 nM
- half-life at 1 μM (MAO-A): 30.9 min
- half-life at 1 μM [2]: 24.8 min

SMILES: COc1cc(SC)c(OC)cc1CCN [Reference Compound 3, 2-(2,5-dimethoxy-4-(methylthio)phenyl)ethan-1-amine, reference compound]
- Ki (5-HT2A receptor [1]; [5]): 296 nM
- HTR 15-25 min (mice; measured 0-15 min): 19 ##
- half-life at 1 μM (MAO-A): > 120 min
- half-life at 1 μM [2]: 5.2 min

SMILES: C#CCSc1cc(OC)c(CCN)cc1OC [Compound I-11, 2-(2,5-dimethoxy-4-(prop-2-yn-1-ylthio)phenyl)ethan-1-amine]
- Ki (5-HT2A receptor [1]; [9]): 1.3 nM
- HTR 15-25 min (mice; calculated using 0-30 min): 24.5 ####
- HTR 160-170 min (mice; mice, 3 mg/kg s.c.): 16.7

SMILES: COc1cc(SCCCF)c(OC)cc1CCN [Compound I-4, 2-(4-((3-fluoropropyl)thio)-2,5-dimethoxyphenyl)ethan-1-amine]
- affinity at 5-HT2A receptors (in words) (5-HT2A receptor [1]): high affinity
- Ki (5-HT2A receptor [1]; [9]): 12 nM
- half-life at 1 μM (MAO-A): 45 min
- half-life at 1 μM [2]: 11 min

SMILES: [2H]C([2H])([2H])Oc1cc(SC)c(OC([2H])([2H])[2H])cc1CCN [II-1, 2-(2,5-bis(methoxy-d3)-4-(methylthio)phenyl)ethan-1-amine]
- Ki (5-HT2A receptor [1]): > 150 nM
- Ki (5-HT2A receptor [1]; [5]): 174 nM
- HTR 15-25 min (mice; measured 0-15 min): 21 ##
- half-life at 1 μM [2]: 5.7 min
